A word on the melting point: it is the temperature, or range, at which the solid turns liquid.

One data set deals with Puccinia recondite. The data set is described as follows: Protective activity against Puccinia recondite on wheat (brown rust of wheat). The class given is in vivo. As to conditions: wheat seedlings cultivar Kanzler, sprayed 1 day before inoculation, efficacy in % of untreated control (90% infection), read-out: Observed activity (% infection); for inhibition at 1 µg/mL: 1 mg/l; for inhibition at 4 µg/mL: 4 mg/l. As for the experimental part: (§1) The active compounds, separately or jointly, were prepared as a stock solution comprising 25 mg of active compound which was made up to 10 ml using a mixture of acetone and/or dimethyl sulfoxide and the emulsifier Uniperol® EL (wetting agent having an emulsifying and dispersing action based on ethoxylated alkylphenols) in a ratio by volume of solvent/emulsifier of 99:1. The mixture was then made up to 100 ml with water. This stock solution was diluted with the solvent/emulsifier/water mixture described to give the concentration of active compound stated below.
(§2) Alternatively, the active compounds epoxiconazole and pyraclostrobin were used as a commercial formulation and diluted with water to the stated active compound concentrations.
(§3) The visually determined percentages of infected leaf areas were converted into efficacies in % of the untreated control.
(§4) The efficacy (E) is calculated as follows using Abbot's formula: […]
(§5) α corresponds to the fungicidal infection of the treated plants in % and β corresponds to the fungicidal infection of the untreated (control) plants in %
(§6) An efficacy of 0 means that the infection level of the treated plants corresponds to that of the untreated control plants; an efficacy of 100 means that the treated plants were not infected.
The expected efficacies of active compound mixtures were determined using Colby's formula [R. S. Colby, “Calculating synergistic and antagonistic responses of herbicide combinations”, Weeds 15, 20-22 (1967)] and compared with the observed efficacies.
E=x+y−x·y/100 Colby's formula • E expected efficacy, expressed in % of the untreated control, when using the mixture of the active compounds A and B at the concentrations a and b; • x efficacy, expressed in % of the untreated control, when using the active compound A at the concentration a; • y efficacy, expressed in % of the untreated control, when using the active compound B at the concentration b;
Leaves of potted wheat seedlings of the cultivar “Kanzler” were sprayed to runoff point with an aqueous suspension having the concentration of active compound stated below. The next day the treated plants were inoculated with a spore suspension of brown rust of wheat (Puccinia recondite). The plants were then placed in a chamber at high atmospheric humidity (90 to 95%) at 20 to 22° C. for 24 hours. During this time, the spores germinated and the germ tubes penetrated into the leaf tissue. The next day, the test plants were returned to the greenhouse and cultivated at temperatures between 20 and 22° C. and 65 to 70% relative atmospheric humidity for a further 7 days. The extent of the rust fungus development on the leaves was then determined visually.

For a further data set, the system named is Botrytis cinerea. The data set is described as follows: Activity against gray mold on bell pepper leaves caused by Botrytis cinerea, 1 day protective application. The class given is in vivo. As to conditions: bell pepper seedlings, sprayed 1 day before inoculation, 4 mg/l, rated after 5 days, efficacy in % of untreated control (100% infection), read-out: Observed activity (% infection). The method, then:
as §1, §2, §3, §4, §5, §6
(§7) The expected efficacies of active compound mixtures were determined using Colby's formula [R. S. Colby, “Calculating synergistic and antagonistic responses of herbicide combinations”, Weeds 15, 20-22 (1967)] and compared with the observed efficacies. […]
Bell pepper seedlings of the cultivar “Neusiedler Ideal Elite” were, after 2-3 leaves were well developed, sprayed to runoff point with an aqueous suspension in the active compound concentration stated below. […] After 5 days, the extent of the fungal infection on the leaves could be determined visually in %.

In another data set the test system is Alternaria solani. Nature of the data set: Activity against early blight on tomatoes caused by Alternaria solani. In kind it is in vivo. As to conditions: tomato plants, sprayed 1 day before infection, rated after 5 days, efficacy in % of untreated control (90% infection), read-out: Observed activity (% infection); for inhibition at 63 µg/mL: 63 mg/l. The method, then:
as §1, §2, §3, §4, §5, §6, §7
Leaves of potted tomato plants were sprayed to runoff point with an aqueous suspension having the concentration of active compounds stated below. […] After 5 days, the disease on the untreated, but infected control plants had developed to such an extent that the infection could be determined visually in %.

The test system of data set [1] is Erysiphe [syn. Blumeria] graminis forma specialis. tritici. The data set is described as follows: Activity against mildew of wheat caused by Erysiphe [syn. Blumeria] graminis forma specialis. tritici. In kind it is in vivo. As to conditions: wheat seedlings, sprayed 24 hours before dusting with spores, 1 mg/l, rated after 7 days; efficacy in % of untreated control (90% infection); read-out: Observed activity (% infection). As for the experimental part: The active compounds, separately or jointly, were prepared as a stock solution comprising 25 mg of active compound which was made up to 10 ml using a mixture of acetone and/or dimethyl sulfoxide and the emulsifier Uniperol® EL (wetting agent having an emulsifying and dispersing action based on ethoxylated alkylphenols) in a ratio by volume of solvent/emulsifier of 99:1. The mixture was then made up to 100 ml with water. This stock solution was diluted with the solvent/emulsifier/water mixture described to give the concentration of active compound stated below. […]
as §3, §4, §7
Leaves of potted wheat seedlings were sprayed to runoff point with an aqueous suspension having the active compound concentration stated below. […] After 7 days, the extent of the mildew development was determined visually in % infection of the entire leaf area.

A further data set deals with Phakopsora pachyrhizi. The data set is described as follows: Curative activity against soybean rust caused by Phakopsora pachyrhizi. In kind it is in vivo. As to conditions: soybean seedlings cultivar Oxford, sprayed 2 days after inoculation, 4 mg/l, rated after 14 days, efficacy in % of untreated control (90% infection), read-out: Observed activity (% infection). The method, then:
as §1, §2, §3, §4, §7
Leaves of potted soybean seedlings of the cultivar “Oxford” were inoculated with a spore suspension of soybean rust (Phakopsora pachyrhizi). […] The extent of the rust fungus development on the leaves was then determined

Molecule `Cn1cc(C(=O)Nc2ccccc2-c2cc(Cl)cc(Cl)c2)c(C(F)(F)F)n1` [No. I.1, 1-methyl-3-trifluoromethyl-N-(ortho-(3,5-dichlorophenyl)phenyl)-pyrazole-4-carboxamide] showed a melting point of 101 to 105 °C. The inhibition at 1 µg/mL with Puccinia recondite was determined as 52%. Besides, in the data set on Botrytis cinerea, the inhibition at 4 µg/mL amounted to 0%.

With `COC(=O)N(OC)c1ccccc1COc1ccn(-c2ccc(Cl)cc2)n1` [pyraclostrobin, methyl N-{2-[1-(4-chlorophenyl)-1H-pyrazol-3-yloxymethyl]phenyl}(N-methoxy)carbamate], the inhibition at 1 µg/mL in the data set on Puccinia recondite worked out at 0%. Also, the inhibition at 4 µg/mL in the data set on Botrytis cinerea was found to be 0%.

On to `Fc1ccc([C@]2(Cn3cncn3)O[C@H]2c2ccccc2Cl)cc1` (racemic) [epoxiconazole, (2RS,3SR)-1-[3-(2-chlorophenyl)-2,3-epoxy-2-(4-fluorophenyl)propyl]-1H-1,2,4-triazole], for which, in the data set on Botrytis cinerea, the inhibition at 4 µg/mL was 10%.

On to `COc1cc(C)c(C(=O)c2c(OC)ccc(Br)c2C)c(OC)c1OC` [metrafenone, 3′-bromo-2,3,4,6′-tetramethoxy-2′,6-dimethylbenzophenone], for which the inhibition at 4 µg/mL in the data set on Puccinia recondite stood at 0%. Besides, in the data set with Alternaria solani, the inhibition at 63 µg/mL was found to be 0%.

Turning to `Cn1cc(C(=O)Nc2ccccc2-c2cc(Cl)cc(Cl)c2)c(C(F)F)n1` [No. I.4, N-(3′,5′-dichlorobiphenyl-2-yl)-1-methyl-3-difluoromethyl-1H-pyrazole-4-carboxamide], the inhibition at 1 µg/mL in the data set with Puccinia recondite is 56%; in data set [1], 0%. For the same molecule, the inhibition at 16 µg/mL with Alternaria solani (16 mg/l) was 44%.

In the case of `COc1ccc(C(=CC(=O)N2CCOCC2)c2ccc(Cl)cc2)cc1OC` [dimethomorph, 3-(4-chlorophenyl)-3-(3,4-dimethoxyphenyl)-1-morpholin-4-yl-propenone], in the data set with Puccinia recondite, the inhibition at 4 µg/mL was found to be 5%. For the same molecule, the inhibition at 63 µg/mL in the data set with Alternaria solani was found to be 0%.

Take `CC1CCN(c2c(-c3c(F)cc(F)cc3F)c(Cl)nc3ncnn23)CC1` [5-chloro-7-(4-methylpiperidin-1-yl)-6-(2,4,6-trifluorophenyl)-[1,2,4]triazolo[1,5-a]pyrimidine]: the inhibition at 4 µg/mL in the data set on Phakopsora pachyrhizi amounted to 28%.

(Values after patent publication US20090042725A1, “Fungicidal Mixtures Based on 3,5-Disubstituted N-Biphenyl-Pyrazolcarboxamides” (BASF Aktiengesellschaft, priority 2005, published 2009).)
